# Data reported in paper PMC7084345, “Differential Inhibitory Actions of Multitargeted Tyrosine Kinase Inhibitors on Different Ionic Current Types in Cardiomyocytes” (International Journal of Molecular Sciences, 2020).
# Target: T1, KV7.1 (KCNQ1) channel, IK(S) (Rattus norvegicus, UniProt Q9Z0N7)
# T1 construct: native IK(S) in H9c2 cells
# T1 sequence (Q9Z0N7 1-669): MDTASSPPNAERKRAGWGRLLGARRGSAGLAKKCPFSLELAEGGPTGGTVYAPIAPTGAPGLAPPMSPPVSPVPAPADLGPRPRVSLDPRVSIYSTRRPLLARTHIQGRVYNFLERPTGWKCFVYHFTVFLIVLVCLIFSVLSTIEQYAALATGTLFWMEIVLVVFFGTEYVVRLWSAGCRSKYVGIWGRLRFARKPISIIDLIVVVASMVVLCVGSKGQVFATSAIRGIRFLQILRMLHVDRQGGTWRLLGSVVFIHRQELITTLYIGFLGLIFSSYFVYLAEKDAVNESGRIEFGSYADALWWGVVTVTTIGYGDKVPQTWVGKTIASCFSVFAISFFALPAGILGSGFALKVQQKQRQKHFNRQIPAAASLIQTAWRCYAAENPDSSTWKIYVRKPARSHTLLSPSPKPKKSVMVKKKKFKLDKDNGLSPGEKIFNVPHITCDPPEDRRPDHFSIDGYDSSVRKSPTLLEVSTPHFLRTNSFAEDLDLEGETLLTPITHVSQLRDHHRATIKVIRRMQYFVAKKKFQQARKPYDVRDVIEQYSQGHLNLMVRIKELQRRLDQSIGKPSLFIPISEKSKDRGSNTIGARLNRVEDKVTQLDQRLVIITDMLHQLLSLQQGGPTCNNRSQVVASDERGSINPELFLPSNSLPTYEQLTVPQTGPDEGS
# Assay: whole-cell patch clamp of native IK(S) in H9c2 cells
# Assay type: cell-based
structure (smiles),measurement,value
"CS(=O)(=O)CCNCc1ccc(-c2ccc3ncnc(Nc4ccc(OCc5cccc(F)c5)c(Cl)c4)c3c2)o1 [LAP, lapatinib]",IC50,1.84 µM
